Literature values as cited in patent publication US10983136B2 (DiaSorin S.p.A., priority 2013, dated 2021).

What was measured:
[1] = in circulation, under normal circumstances
[2] = biological target: T1, vitamin D binding protein (DBP) (Homo sapiens, UniProt P02774); conditions: association constant
T1 sequence (P02774 17-474): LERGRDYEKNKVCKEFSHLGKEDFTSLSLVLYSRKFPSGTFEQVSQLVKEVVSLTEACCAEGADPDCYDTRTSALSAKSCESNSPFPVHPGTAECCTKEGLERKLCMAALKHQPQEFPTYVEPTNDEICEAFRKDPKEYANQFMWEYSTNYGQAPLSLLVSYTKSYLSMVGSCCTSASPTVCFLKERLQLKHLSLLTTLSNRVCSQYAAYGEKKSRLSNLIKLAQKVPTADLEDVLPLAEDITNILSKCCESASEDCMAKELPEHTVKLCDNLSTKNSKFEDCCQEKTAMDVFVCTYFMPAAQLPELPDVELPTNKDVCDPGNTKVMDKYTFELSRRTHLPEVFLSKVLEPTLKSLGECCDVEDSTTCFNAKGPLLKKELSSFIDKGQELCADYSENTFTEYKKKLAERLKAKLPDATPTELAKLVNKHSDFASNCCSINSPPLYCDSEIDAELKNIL

[3] = biological target: T1, vitamin D binding protein (DBP); conditions: same pH value (above 6, preferably above 7)

Row | Compound | free form [1] | Ka (affinity of DBP) [2] [M⁻¹] | greater affinity of DBP for 25(OH)D over 1,25(OH)2D [3]
1 | C=C1/C(=C\C=C2/CCC[C@]3(C)[C@@H]([C@H](C)CCCC(C)(C)O)CC[C@@H]23)C[C@@H](O)C[C@@H]1O [1,25(OH)2D, 1,25-dihydroxyvitamin D] | approximately 0.4% |  | 
2 | C=C1CC[C@H](O)C/C1=C/C=C1\CCC[C@]2(C)[C@@H]([C@H](C)CCCC(C)(C)O)CC[C@@H]12 [25(OH)D, 25-hydroxyvitamin D] | approximately 0.03% | 5e+08 | about 1000 fold
3 | vitamin D |  | 4e+07 | 
